Assay results: patent US10323043B2, “Derivatives of macrocyclic N-aryl-tricyclopyrimidine-2-amine polyethers as inhibitors of FTL3 and JAK” (PIERRE FABRE MEDICAMENT, priority 2014, dated 2019)
Blank lines part the entries; values can stand above or below the compound they belong to.

Molecular target: T1, FLT3^D835Y (Homo sapiens, UniProt P36888, D835Y)
T1 construct: purchased Merck Millipore 14-610
T1 sequence (P36888 27-993 D835Y): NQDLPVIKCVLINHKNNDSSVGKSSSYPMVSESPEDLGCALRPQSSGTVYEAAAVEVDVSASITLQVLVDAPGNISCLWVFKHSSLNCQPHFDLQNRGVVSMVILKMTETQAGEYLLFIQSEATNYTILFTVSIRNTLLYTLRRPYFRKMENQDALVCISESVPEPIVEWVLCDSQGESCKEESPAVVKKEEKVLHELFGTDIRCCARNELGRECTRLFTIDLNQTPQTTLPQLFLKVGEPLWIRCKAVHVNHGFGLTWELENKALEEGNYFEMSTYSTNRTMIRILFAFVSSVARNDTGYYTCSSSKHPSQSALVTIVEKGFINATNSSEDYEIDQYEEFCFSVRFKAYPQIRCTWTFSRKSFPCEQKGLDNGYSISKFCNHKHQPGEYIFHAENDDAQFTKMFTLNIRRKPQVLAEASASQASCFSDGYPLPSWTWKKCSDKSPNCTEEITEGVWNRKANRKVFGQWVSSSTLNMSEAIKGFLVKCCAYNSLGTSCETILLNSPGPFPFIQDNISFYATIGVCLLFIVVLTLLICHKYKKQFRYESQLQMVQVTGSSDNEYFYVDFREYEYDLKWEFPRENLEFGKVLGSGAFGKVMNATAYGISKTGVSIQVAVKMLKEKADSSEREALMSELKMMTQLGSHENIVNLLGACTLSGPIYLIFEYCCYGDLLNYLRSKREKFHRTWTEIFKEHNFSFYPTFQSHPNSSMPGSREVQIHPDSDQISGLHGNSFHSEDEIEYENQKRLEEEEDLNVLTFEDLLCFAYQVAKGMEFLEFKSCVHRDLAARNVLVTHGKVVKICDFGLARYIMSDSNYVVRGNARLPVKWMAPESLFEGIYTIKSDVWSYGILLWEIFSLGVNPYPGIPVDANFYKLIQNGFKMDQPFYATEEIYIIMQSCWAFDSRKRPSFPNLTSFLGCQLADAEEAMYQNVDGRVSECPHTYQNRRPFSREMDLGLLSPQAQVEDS
Test: LanthaScreen TR-FRET binding test, FLT3 D835Y
Settings: FLT3^D835Y 15 nM, kinase tracer 236 3 nM, 25° C., 1 hour; read-out: Inhibition (IC50) of FLT3^D835Y enzyme
Description: FLT3 (#PV3182), JAK2 (#PV4210) and JAK3 (#PV3855) recombinant enzymes were purchased from Life Technologies. FLT3-ITD (#0778-0000-1) and FLT3^D835Y (#14-610) proteins were purchased from ProQinase and Merck Millipore, respectively. All the tests were carried out in 384-well plates. The principle of these binding tests is based on the LanthaScreen® TR-FRET methodology from Life Technologies.
The reaction mixture (15 μL total volume) contains the following compounds: 15 nM FLT3, FLT3-ITD or FLT3^D835Y, 3 nM kinase tracer 236 (Life Technologies, #PV5592) and 6 nM LanthaScreen® anti-GST antibody coupled to a europium chelate (Life Technologies, #PV5594) for FLT3-ITD and FLT3^D835Y or 6 nM LanthaScreen® anti-His antibody coupled to a europium chelate (Life Technologies, #PV5596) for FLT3.
The compounds are evaluated at 8 different concentrations prepared by making dilutions from a starting 10 mM stock solution in dimethylsulfoxide (DMSO) (Sigma, #D8418). The final DMSO concentration in the test is 1%. The reaction is carried out at 25° C. for 1 hour and detected on the EnVision® reader (Perkin Elmer) according to the recommendations of the supplier, Life Technologies.
The results are presented (Table 1) as the concentration values of the compound at which 50% of the kinase activity is inhibited, IC50 (μM), generated using the PRISM software (GraphPad).

Structure (SMILES): c1cc(N2CCC(N3CCOCC3)C2)c2cc1Nc1ncc3c(n1)-c1cc(ccc1CC3)OCCOCCO2 (stereo not shown) [Compound 7]
IC50: 7.2 nM

Structure (SMILES): c1cc(N2CCC(N3CCCCC3)CC2)c2cc1Nc1ncc3c(n1)-c1cc(ccc1CC3)OCCOCCO2 [Compound 10]
IC50: 1.1 nM

Structure (SMILES): c1cc(OCCN2CCCC2)c2cc1Nc1ncc3c(n1)-c1cc(ccc1CC3)OCCOCCO2 [Compound 14]
IC50: 3.2 nM

Structure (SMILES): CN1CC=C(c2ccc3cc2OCCOCCOc2ccc4c(c2)-c2nc(ncc2CC4)N3)CC1 [Compound 23]
IC50: 4.5 nM

Structure (SMILES): CN1CCN(c2ccc3cc2OCCOCCOc2ccc4c(c2)-c2nc(ncc2CC4)N3)CC1(C)C [Compound 40]
IC50: 1 nM

Second part, the compound after the results:

IC50: 3 nM
Structure (SMILES): CN1CCN(c2ccc3cc2OCCOCCOc2ccc4c(c2)-c2nc(ncc2CC4)N3)CC1 [Compound 3]

IC50: 0.66 nM
Structure (SMILES): c1cc(N2CCNCC2)c2cc1Nc1ncc3c(n1)-c1cc(ccc1CC3)OCCOCCO2 [Compound 5]

IC50: 5.3 nM
Structure (SMILES): OC1CCN(c2ccc3cc2OCCOCCOc2ccc4c(c2)-c2nc(ncc2CC4)N3)CC1 [Compound 19]

IC50: 1.9 nM
Structure (SMILES): c1cc(N2CC3CNCC3C2)c2cc1Nc1ncc3c(n1)-c1cc(ccc1CC3)OCCOCCO2 (stereo not shown) [Compound 29]

IC50: 3.2 nM
Structure (SMILES): CN(C)C1CCN(c2ccc3cc2OCCOCCOc2ccc4c(c2)-c2nc(ncc2CC4)N3)C1 (stereo not shown) [Compound 30]
